# Laboratory results published in patent US7554012B2, “Plants and plant cells exhibiting resistance to AMPA, and methods for making the same” (priority 1998, dated 2009).
# Where two headings read alike, the source gives them in different places.
# Tests used:
# purified PhnO protein = biological target: T1, purified PhnO protein (Escherichia coli, UniProt P16691, P2A); assay: AMPA transacylase acyl-CoA acyl donor specificity, HPLC; assay type: biochemical, E. coli; settings: for [^14C]-AMPA % Conversion: 5 minutes 30° C.; for % Activity: 1 mM acetyl-CoA = 100% reference
# T1 construct: made in house; host or cells: E. coli JM101 carrying pMON15032 (recA promoter, nalidixic acid induction)
# Description: PhnO was purified from a one liter Luria Bertani broth culture of E. coli JM101 expressing a recombinant phnO gene from pMON15032 after nalidixic acid induction for three hours at 37° C. Cells were harvested by centrifugation and resuspended in 40 ml cold Tris buffer (0.1 M Tris-HCl pH 8) and placed on ice. The cell suspension was brought to 1 mM DTT and 0.5 mM PMSF. The suspension was lysed by 2 passages through a prechilled French pressure cell at 1,100 psi, centrifuged at 12,000 g (10,000 rpm in an Sorvall SA600 rotor) for 40 min at 4° C., then placed on ice. The cleared supernatants were poured into fresh 15 ml polypropylene tubes. The samples were split again into two equal portions and maintained at −80° C. until used further for purification of PhnO protein. 20 microliters of the soluble fraction was assayed for enzyme activity using the HPLC method described above in Example 2, except after terminating the assay with acid addition, the sample was stored at −80° C. A Sephacryl S200 column was prepared according to the manufacturers' instructions and equilibrated with a solution containing 20 mM Tris pH 8.0 and 0.5 mM MgCl2. The entire total soluble extract was layered over the top of the column bed after thawing on ice. Forty 9 ml fractions were collected from the column eluate, and thirty microliters of each fraction was analyzed by western blot using anti-PhnO antiserum after resolution on a 15% SDS-PAGE gel. Also, thirty microliters of each fraction was analyzed for AMPA acyl transferase activity using the method described in Example 2. […] These were represented by fractions 7 through 19 in this example, and were combined into a 100 ml volume, distributed into […] each containing 10 ml volumes, and stored at −80° C. for further use.
# Anion exchange chromatography was used to determine the elution pattern of PhnO away from other contaminating proteins that co-elute during the Sephacryl S200 fractionation. One tube from the combined PhnO positive fractions was thawed on ice and injected into a 5/5 Mono-Q column pre-equilibrated with buffers A (one liter of 20 mM Tris-HCl pH 8.0 Mili-Q distilled deionized water) and B (one liter of 20 mM Tris-HCl pH 8.0, 1 M NaCl). The sample containing PhnO active protein was injected into the column and one milliliter fractions were collected. The column was washed for five minutes with a flow rate of 1.8 ml per minute Buffer A after loading the PhnO containing sample. At five minutes, Buffer B was added to the flow volume at 0.5 ml per minute for four minutes. Buffer B was ramped up to 22% of the flow volume at 10 minutes, 30% at 12 minutes, 36% at 13 minutes, 41% at 14 minutes, 46% at 15 minutes, 74% at 16 minutes, and 100% at 16 minutes through 22 minutes, at which point Buffer B flow was terminated and Buffer A was reinitiated at 100% to equilibrate the column. Ten microliter volumes from individual fractions collected from the Mono-Q column were analyzed by western blot and for transacylase activity as described in Example 2. […] Samples of this purified PhnO protein were used to determine enzyme's acyl donor substrate specificity.
# Enzyme reactions were prepared as follows. […] A assay premix was prepared from which 45 microliters was used in each 100 microliter reaction. This 45 microliter premix sample consisted of 40 microliters distilled and deionized water, 2 microliters of 50 mM MgCl2, and 3 microliters of 1.3 mM [^14C]-AMPA (115,392 dpm per microliter). Reactions were initiated by mixing 40 microliters of 125 mM Tris-HCl pH 8.0, […] protein sample and 10 microliters acyl-CoA acyl donor compound in a microcentrifuge tube at room temperature. Each acyl-CoA acyl donor compound was prepared as a stock solution of 1 mM, 5 mM or 10 mM stocks. Each tube was then mixed with 45 microliters of the assay premix containing the [^14C]-AMPA […] substrate, mixed gently and transferred to a 30° C. water bath for 5 minutes. […]
# PhnO enzyme = PhnO enzyme (Escherichia coli, UniProt P16691, P2A)
# Description: The ability of the enzyme to produce N-acetyl AMPA from a mixture containing acetyl-CoA and AMPA across a range of pH values was determined. The reactions were carried out in MES/MOPS/Tricine buffer equilibrated to a pH value from 4.5 to 9.0, with actual pH values ranging from 5.2 through 9.0. Briefly, 95 microliters of an appropriate buffer was mixed with 100 microliters of 2×assay mix as described in example 4, and 5 microliters of desalted E. coli lysate containing approximately 400 ng/microliter PhnO protein.
molecule,measurement,setting,value
"C/C=C/C(=O)SCCNC(=O)CCNC(=O)[C@H](O)C(C)(C)COP(=O)(O)OP(=O)(O)OC[C@H]1O[C@@H](n2cnc3c(N)ncnc32)[C@H](O)[C@@H]1OP(=O)(O)O [Crotonoyl-CoA, crotonoyl-CoA]",[^14C]-AMPA % Conversion,purified PhnO protein; acyl donor 0.1 mM,0.80%
same,% Activity,purified PhnO protein; acyl donor 0.1 mM,0.80%
same,[^14C]-AMPA % Conversion,purified PhnO protein; acyl donor 0.5 mM,0.00%
same,% Activity,purified PhnO protein; acyl donor 0.5 mM,0.00%
same,[^14C]-AMPA % Conversion,purified PhnO protein; acyl donor 1 mM,0.00%
same,% Activity,purified PhnO protein; acyl donor 1 mM,0.00%
"CCNC(=O)CCNC(=O)[C@H](O)C(C)(C)COP(=O)(O)OP(=O)(O)OC[C@H]1O[C@@H](n2cnc3c(N)ncnc32)[C@H](O)[C@@H]1OP(=O)(O)O [Desulfo-CoA, desulfo-CoA]",[^14C]-AMPA % Conversion,purified PhnO protein; acyl donor 0.1 mM,0.95%
same,% Activity,purified PhnO protein; acyl donor 0.1 mM,0.95%
same,[^14C]-AMPA % Conversion,purified PhnO protein; acyl donor 0.5 mM,1.25%
same,% Activity,purified PhnO protein; acyl donor 0.5 mM,1.25%
same,[^14C]-AMPA % Conversion,purified PhnO protein; acyl donor 1 mM,0.52%
same,% Activity,purified PhnO protein; acyl donor 1 mM,0.52%
"CC(C)(COP(=O)(O)OP(=O)(O)OC[C@H]1O[C@@H](n2cnc3c(N)ncnc32)[C@H](O)[C@@H]1OP(=O)(O)O)[C@@H](O)C(=O)NCCC(=O)NCCSC(=O)CCCC(=O)O [Glutaryl-CoA, glutaryl-CoA]",[^14C]-AMPA % Conversion,purified PhnO protein; acyl donor 0.1 mM,0.81%
same,% Activity,purified PhnO protein; acyl donor 0.1 mM,0.81%
same,[^14C]-AMPA % Conversion,purified PhnO protein; acyl donor 0.5 mM,0.00%
same,% Activity,purified PhnO protein; acyl donor 0.5 mM,0.00%
same,[^14C]-AMPA % Conversion,purified PhnO protein; acyl donor 1 mM,0.57%
same,% Activity,purified PhnO protein; acyl donor 1 mM,0.57%
"CC(C)C(=O)SCCNC(=O)CCNC(=O)[C@H](O)C(C)(C)COP(=O)(O)OP(=O)(O)OC[C@H]1O[C@@H](n2cnc3c(N)ncnc32)[C@H](O)[C@@H]1OP(=O)(O)O [Isobutyryl-CoA, isobutyryl-CoA]",[^14C]-AMPA % Conversion,purified PhnO protein; acyl donor 0.1 mM,2.10%
same,% Activity,purified PhnO protein; acyl donor 0.1 mM,2.10%
same,[^14C]-AMPA % Conversion,purified PhnO protein; acyl donor 0.5 mM,0.20%
same,% Activity,purified PhnO protein; acyl donor 0.5 mM,0.20%
same,[^14C]-AMPA % Conversion,purified PhnO protein; acyl donor 1 mM,0.00%
same,% Activity,purified PhnO protein; acyl donor 1 mM,0.00%
"CC(C(=O)O)C(=O)SCCNC(=O)CCNC(=O)[C@H](O)C(C)(C)COP(=O)(O)OP(=O)(O)OC[C@H]1O[C@@H](n2cnc3c(N)ncnc32)[C@H](O)[C@@H]1OP(=O)(O)O (stereo partly shown) [Methylmalonyl-CoA, methylmalonyl CoA]",[^14C]-AMPA % Conversion,purified PhnO protein; acyl donor 0.1 mM,1.11%
same,% Activity,purified PhnO protein; acyl donor 0.1 mM,1.11%
same,[^14C]-AMPA % Conversion,purified PhnO protein; acyl donor 0.5 mM,2.08%
same,% Activity,purified PhnO protein; acyl donor 0.5 mM,2.08%
same,[^14C]-AMPA % Conversion,purified PhnO protein; acyl donor 1 mM,2.21%
same,% Activity,purified PhnO protein; acyl donor 1 mM,2.21%
"CCC(=O)SCCNC(=O)CCNC(=O)[C@H](O)C(C)(C)COP(=O)(O)OP(=O)(O)OC[C@H]1O[C@@H](n2cnc3c(N)ncnc32)[C@H](O)[C@@H]1OP(=O)(O)O [Propionyl-CoA, n-propionyl-CoA]",[^14C]-AMPA % Conversion,purified PhnO protein; acyl donor 0.1 mM,78.2%
same,% Activity,purified PhnO protein; acyl donor 0.1 mM,78.2%
same,[^14C]-AMPA % Conversion,purified PhnO protein; acyl donor 0.5 mM,97.8%
same,% Activity,purified PhnO protein; acyl donor 0.5 mM,97.8%
same,[^14C]-AMPA % Conversion,purified PhnO protein; acyl donor 1 mM,100.00%
same,% Activity,purified PhnO protein; acyl donor 1 mM,100.00%
"CC(C)(COP(=O)(O)OP(=O)(O)OC[C@H]1O[C@@H](n2cnc3c(N)ncnc32)[C@H](O)[C@@H]1OP(=O)(O)O)[C@@H](O)C(=O)NCCC(=O)NCCSC(=O)CCC(=O)O [Succinyl-CoA, succinyl-CoA]",[^14C]-AMPA % Conversion,purified PhnO protein; acyl donor 0.1 mM,5.06%
same,% Activity,purified PhnO protein; acyl donor 0.1 mM,5.06%
same,[^14C]-AMPA % Conversion,purified PhnO protein; acyl donor 0.5 mM,3.38%
same,% Activity,purified PhnO protein; acyl donor 0.5 mM,3.38%
same,[^14C]-AMPA % Conversion,purified PhnO protein; acyl donor 1 mM,1.56%
same,% Activity,purified PhnO protein; acyl donor 1 mM,1.56%
"C/C=C(\C)C(=O)SCCNC(=O)CCNC(=O)[C@H](O)C(C)(C)COP(=O)(O)OP(=O)(O)OC[C@H]1O[C@@H](n2cnc3c(N)ncnc32)[C@H](O)[C@@H]1OP(=O)(O)O [Tiglyl-CoA, tiglyl-CoA]",[^14C]-AMPA % Conversion,purified PhnO protein; acyl donor 0.1 mM,0.00%
same,% Activity,purified PhnO protein; acyl donor 0.1 mM,0.00%
same,[^14C]-AMPA % Conversion,purified PhnO protein; acyl donor 0.5 mM,0.00%
same,% Activity,purified PhnO protein; acyl donor 0.5 mM,0.00%
same,[^14C]-AMPA % Conversion,purified PhnO protein; acyl donor 1 mM,0.99%
same,% Activity,purified PhnO protein; acyl donor 1 mM,0.99%
"CCCCC(=O)SCCNC(=O)CCNC(=O)[C@H](O)C(C)(C)COP(=O)(O)OP(=O)(O)OC[C@H]1O[C@@H](n2cnc3c(N)ncnc32)[C@H](O)[C@@H]1OP(=O)(O)O [Valeryl-CoA, n-valeryl-CoA]",[^14C]-AMPA % Conversion,purified PhnO protein; acyl donor 0.1 mM,0.24%
same,% Activity,purified PhnO protein; acyl donor 0.1 mM,0.24%
same,[^14C]-AMPA % Conversion,purified PhnO protein; acyl donor 0.5 mM,0.00%
same,% Activity,purified PhnO protein; acyl donor 0.5 mM,0.00%
same,[^14C]-AMPA % Conversion,purified PhnO protein; acyl donor 1 mM,0.33%
same,% Activity,purified PhnO protein; acyl donor 1 mM,0.33%
PhnO: AMPA acyltransferase protein encoded by the phnO gene within the E. coli phn operon (protein) MAACELRPATQYDTDAVYALICELKQAEFDHHAFRVGFNANLRDPNMRYHLALLDGEVVGMIGLHLQFHLHHVNWIGEIQELVVMPQARGLNVGSKLLAWAEEEARQAGAEMTELSTNVKRHDAHRFYLREGYEQSHFRFTKAL,pH of optimum PhnO transacylase activity,PhnO enzyme; AMPA and acetyl-CoA as substrates,~8.0 pH
same,N-Acetyl CoA,PhnO enzyme; Buffer pH 5.0,222 nmol
same,Velocity,PhnO enzyme; Buffer pH 5.0,22.2 nmole/min/microgram
same,% Turnover,PhnO enzyme; Buffer pH 5.0 (mock reaction pH 5.23),3.7%
same,N-Acetyl CoA,PhnO enzyme; Buffer pH 5.5,234 nmol
same,Velocity,PhnO enzyme; Buffer pH 5.5,23.4 nmole/min/microgram
same,% Turnover,PhnO enzyme; Buffer pH 5.5 (mock reaction pH 5.62),3.9%
same,N-Acetyl CoA,PhnO enzyme; Buffer pH 6.0,252 nmol
same,Velocity,PhnO enzyme; Buffer pH 6.0,25.2 nmole/min/microgram
same,% Turnover,PhnO enzyme; Buffer pH 6.0 (mock reaction pH 5.92),4.2%
same,N-Acetyl CoA,PhnO enzyme; Buffer pH 6.5,798 nmol
same,Velocity,PhnO enzyme; Buffer pH 6.5,79.8 nmole/min/microgram
same,% Turnover,PhnO enzyme; Buffer pH 6.5 (mock reaction pH 6.47),13.3%
same,N-Acetyl CoA,PhnO enzyme; Buffer pH 7.0,1620 nmol
same,Velocity,PhnO enzyme; Buffer pH 7.0,162.0 nmole/min/microgram
same,% Turnover,PhnO enzyme; Buffer pH 7.0 (mock reaction pH 7.0),27.0%
same,N-Acetyl CoA,PhnO enzyme; Buffer pH 7.5,1920 nmol
same,Velocity,PhnO enzyme; Buffer pH 7.5,192.0 nmole/min/microgram
same,% Turnover,PhnO enzyme; Buffer pH 7.5 (mock reaction pH 7.48),32.0%
same,N-Acetyl CoA,PhnO enzyme; Buffer pH 8.0,2058 nmol
same,Velocity,PhnO enzyme; Buffer pH 8.0,205.8 nmole/min/microgram
same,% Turnover,PhnO enzyme; Buffer pH 8.0 (mock reaction pH 8.05),34.3%
same,N-Acetyl CoA,PhnO enzyme; Buffer pH 8.5,2010 nmol
same,Velocity,PhnO enzyme; Buffer pH 8.5,201.0 nmole/min/microgram
same,% Turnover,PhnO enzyme; Buffer pH 8.5 (mock reaction pH 8.46),33.5%
same,N-Acetyl CoA,PhnO enzyme; Buffer pH 9.0,2034 nmol
same,Velocity,PhnO enzyme; Buffer pH 9.0,203.4 nmole/min/microgram
same,% Turnover,PhnO enzyme; Buffer pH 9.0 (mock reaction pH 9.0),33.9%
